Legend:
[1] = test system: Erysiphe graminis f. sp. tritici; assay: Test A: wheat powdery mildew disease control (wheat seedlings); type: in vivo; details: sprayed at 1000 to 2 ppm (rate not given per compound)
Experimental: The test compounds were dissolved in acetone in an amount equal to 6% of the final volume and then suspended at a concentration of from 1000 to 2 ppm in purified water containing 250 ppm of the surfactant TREM 014 (polyhydric alcohol esters). This suspension was sprayed to the point of run-off on wheat seedlings. The following day plants were inoculated with a spore dust of Erysiphe graminis f. sp. tritici, the causal agent of wheat powdery mildew, and incubated in a growth chamber at 20° C. for 7 days, when disease ratings were made.

Pyricularia oryzae = type: in vivo; details: rice blast; sprayed at 1000 to 2 ppm (rate not given per compound)
Venturia inaequalis = assay: Test C: apple scab disease control (apple seedlings); type: in vivo; details: sprayed at 1000 to 2 ppm (rate not given per compound)
Experimental: (§1) The test compounds were dissolved in acetone in an amount equal to 6% of the final volume and then suspended at a concentration of from 1000 to 2 ppm in purified water containing 250 ppm of the surfactant TREM 014 (polyhydric alcohol esters). This suspension was sprayed to the point of run-off on apple seedlings. The following day plants were inoculated with a spore suspension of Venturia inaequalis, the causal agent of apple scab, and incubated in a saturated humidity chamber at 20° C. for 24 hours and then in a growth chamber at 22° C. for 11 days, when disease ratings were made.

Puccinia recondita = assay: Test B: wheat leaf rust disease control (wheat seedlings); type: in vivo; details: sprayed at 1000 to 2 ppm (rate not given per compound)
Experimental: The test compounds were dissolved in acetone in an amount equal to 6% of the final volume and then suspended at a concentration of from 1000 to 2 ppm in purified water containing 250 ppm of the surfactant TREM 014 (polyhydric alcohol esters). This suspension was sprayed to the point of run-off on wheat seedlings.

Botrytis cinerea = assay: Test E: cucumber grey mold disease control (cucumber seedlings); type: in vivo; details: sprayed at 1000 to 2 ppm (rate not given per compound)
Experimental: as §1, with “cucumber” for “apple”, “Botrytis cinerea,” for “Venturia inaequalis,”, “cucumber grey mold,” for “apple scab,”, “48” for “24”, “greenhouse” for “growth chamber at 22° C.”, “5” for “11”

Rhizoctonia solani = assay: Test I: rice sheath blight disease control (rice seedlings); type: in vivo; details: sprayed at 1000 to 2 ppm (rate not given per compound)
Experimental: The test compounds were dissolved in acetone in an amount equal to 6% of the final volume and then suspended at a concentration of from 1000 to 2 ppm in purified water containing 250 ppm of the surfactant TREM 014 (polyhydric alcohol esters). This suspension was sprayed to the point of run-off on rice seedlings. The following day plants were inoculated with a mycelial suspension of Rhizoctonia solani, the causal agent of rice sheath blight, and incubated in a saturated humidity chamber at 27° C. for 48 hours and then in a growth chamber at 29° C. for 4 days, when disease ratings were made.

Phytophthora infestans = type: in vivo; details: tomato late blight; sprayed at 1000 to 2 ppm (rate not given per compound)
Cercosporidum personatum = assay: Test D: peanut late leaf spot disease control (peanut seedlings); type: in vivo; details: sprayed at 1000 to 2 ppm (rate not given per compound)
Experimental: The test compounds were dissolved in acetone in an amount equal to 6% of the final volume and then suspended at a concentration of from 1000 to 2 ppm in purified water containing 250 ppm of the surfactant TREM 014 (polyhydric alcohol esters). This suspension was sprayed to the point of run-off on peanut seedlings. The following day plants were inoculated with a spore suspension of Cercosporidum personatum, the causal agent of peanut late leaf spot, and incubated in a saturated humidity chamber at 22° C. for 24 hours and then in a high humidity chamber at 27° C. for 7 days, and then in a growth chamber at 29° C. for 7 days, when disease ratings were made.

[2] = test system: isolation-induced aggressive behavior; assay: Isolation-Induced Aggression in Mice; type: in vivo, mouse (male Balb/c); details: po
Experimental: Male Balb/c mice (Charles River) were used. […] Isolated mice failing to consistently attack an intruder were eliminated from the colony.
Drug testing was carried out by treating the isolated mice with test drugs or standards. Fifteen min after dosing with drugs by the oral route (po), one isolated mouse was removed from its home cage and placed in the home cage of another isolate. Scoring was a yes or no response for each pair. A maximum of 3 min was allowed for an attack and the pair was separated immediately upon an attack. Selection of home cage and intruder mice was randomized for each test. Mice were treated and tested twice a week with at least a 2 day washout period between treatments.

sigma receptor = details: Tam, Eur. Pharmacol. 109: 33-41 (1985); cited from earlier work
[3] = test system: (+)-N-allylnormetazocine-induced turning; assay: (+)-N-Allylnormetazocine-Induced Turning Behavior in Rats; type: in vivo, rat (male Sprague-Dawley); details: p.o.
Plasmopara viticola = assay: Test G: grape downy mildew disease control (grape seedlings); type: in vivo; details: sprayed at 1000 to 2 ppm (rate not given per compound)
Experimental: The test compounds were dissolved in acetone in an amount equal to 6% of the final volume and then suspended at a concentration of from 1000 to 2 ppm in purified water containing 250 ppm of the surfactant TREM 014 (polyhydric alcohol esters). This suspension was sprayed to the point of run-off on grape seedlings. The following day plants were inoculated with a spore suspension of Plasmopara viticola, the causal agent of grape downy mildew, and incubated in a dew chamber at 20° C. for 24 hours and then in a growth chamber a 20° C. for 7 days, when disease ratings were made.

| Compound | disease control rating, Test A [1] [%] | disease control rating, Test H (Pyricularia oryzae) [%] | disease control rating, Test C (Venturia inaequalis) [%] | disease control rating, Test B (Puccinia recondita) [%] | disease control rating, Test E (Botrytis cinerea) [%] | disease control rating, Test I (Rhizoctonia solani) [%] | disease control rating, Test F (Phytophthora infestans) [%] | disease control rating, Test D (Cercosporidum personatum) [%] | inhibiting the isolation-induced aggressive behavior (in words) [2] | affinity for the sigma receptor (in words) (sigma receptor) | antagonism of N-allylnormetazocine-induced rotation (in words) [3] | disease control rating, Test G (Plasmopara viticola) [%] |
| --- | --- | --- | --- | --- | --- | --- | --- | --- | --- | --- | --- | --- |
| c1ccc(COCC2CCN(Cc3ccccc3)CC2)cc1 [Example 185] | 29 | 0 | 28 | 0 | 0 | 0 | 0 | 26 | – | – | – | – |
| Clc1ccc(OCC2CCN(Cc3ccccc3)CC2)cc1 [Example 134] | – | – | – | – | – | – | – | – | potent activities | – | – | – |
| COC(=O)c1ccc(CN2CCC(COCc3ccc(F)cc3)CC2)cc1 [Example 187] | 98 | 0 | 51 | 96 | 0 | 0 | 0 | 0 | – | – | – | – |
| Oc1ccc(CN2CCC(COCc3ccc(F)cc3)CC2)cc1 [Example 189] | 99 | 0 | 86 | 26 | 0 | 0 | 0 | 75 | – | – | – | – |
| Fc1ccc(COCC2CCN(Cc3ccccc3)CC2)cc1 [Example 181] | 87 | 0 | 55 | 37 | – | 0 | 0 | 82 | potent activities | – | – | – |
| CC(C)=CCN1CCC(COCc2ccc(F)cc2)CC1 [Example 314] | 91 | 0 | 46 | – | 8 | 39 | 0 | 75 | – | – | – | – |
| COC(=O)c1ccc(COCC2CCN(Cc3ccccc3)CC2)cc1 [Example 186] | 0 | 0 | 81 | – | 0 | 0 | 0 | 0 | – | – | – | – |
| O=[N+]([O-])c1ccc(OCC2CCN(Cc3ccccc3)CC2)cc1 [Example 135] | – | – | – | – | – | – | – | – | potent activities | – | – | – |
| FC(F)(F)c1ccc(OCC2CCN(Cc3ccccc3)CC2)cc1 [Example 136] | – | – | – | – | – | – | – | – | potent activities | – | – | – |
| Fc1ccc(OCC2CCN(Cc3ccc(Cl)cc3)CC2)cc1 [Example 138] | – | – | – | – | – | – | – | – | potent activities | – | – | – |
| Fc1ccc(COCC2CCN(Cc3ccccc3)CC2)cc1 [Example 205] | 94 | 0 | 66 | 35 | 33 | 0 | 0 | 30 | – | – | – | – |
| c1ccc(C2(N3CCCCC3)CCCCC2)cc1 [PCP] | – | – | – | – | – | – | – | – | – | significant affinity | – | – |
| O=C(CCCN1CCC(O)(c2ccc(Cl)cc2)CC1)c1ccc(F)cc1 [Haloperidol, reference compound] | – | – | – | – | – | – | – | – | potent activities | – | potently antagonized | – |
| Fc1ccc(COCC2CCN(Cc3ccc4ccccc4c3)CC2)cc1 [Example 195] | 99 | 0 | 68 | 73 | 0 | 0 | 0 | 46 | – | – | – | – |
| Fc1ccc(COCC2CCN(CCCc3ccccc3)CC2)cc1 [Example 313] | 97 | 0 | 40 | 29 | 0 | 0 | 0 | 91 | – | – | – | – |
| CCCCCCN1CCC(COCc2ccc(F)cc2)CC1 [Example 312] | 97 | 0 | 16 | 27 | 0 | 0 | 0 | 51 | – | – | – | – |
| Fc1ccc(OCC2CCN(Cc3ccccc3)CC2)cc1 [Example 68, 1-Benzyl-4-(4'-Fluorophenoxymethyl)piperidine] | – | – | – | – | – | – | – | – | potent activities | – | potently antagonized | – |
| COc1ccc(COCC2CCN(Cc3ccccc3)CC2)cc1 [Example 182] | 63 | 0 | 0 | 27 | – | 0 | 0 | 0 | – | – | – | – |
| Fc1ccc(COCC2CCN(Cc3ccc4ccccc4c3)CC2)cc1 [Example 114] | – | – | – | – | – | – | – | – | potent activities | – | – | – |
| Fc1ccc(COC2CCN(Cc3ccccc3)CC2)cc1 [Example 315] | 99 | 0 | 90 | 52 | 0 | 19 | 0 | 46 | – | – | – | – |
| Fc1ccc(COCC2CCN(Cc3cccc4ccccc34)CC2)cc1 [Example 196] | 0 | 0 | 90 | – | 0 | 0 | 26 | 0 | – | – | – | 40 |
| Fc1ccc(COCC2CCN(Cc3ccc(Cl)cc3)CC2)cc1 [Example 188] | 100 | 0 | 93 | 72 | 18 | 0 | 8 | 82 | – | – | – | 89 |

Source: patent US5169855A, “Piperidine ether derivatives as psychotropic drugs or plant fungicides” (priority 1990, dated 1992)
